Each structure is given as a SMILES string. In brackets after ≈: the same amount, converted by molar mass.

Series [1] relates to S. pneumonia RCMB 010010. Nature of the series: Agar well diffusion, inhibition zone. Type of series: cell-based, Streptococcus pneumoniae. The arrangement: key to Mean diameter of inhibition zone (Mean ± SEM): –: -: No activity under the screening conditions. To be noted: mean of three values; for zone of inhibition at 1000 µg/mL: Streptococcus pneumoniae, RCMB010010, 1 mg/mL, read-out: Mean diameter of inhibition zone (Mean ± SEM). For orientation: A growth-free zone around the sample is the usual read-out of agar diffusion tests.

Series [2] deals with B. subtilis RCMB 010067. Kind of series: Agar well diffusion, inhibition zone. Type of series: cell-based, Bacillus subtilis. Also on record: key to Mean diameter of inhibition zone (Mean ± SEM): –: -: No activity under the screening conditions. To be noted: mean of three values; for zone of inhibition at 1000 µg/mL: Bacillus subtilis, RCMB010067, 1 mg/mL, read-out: Mean diameter of inhibition zone (Mean ± SEM).

For series [3], the system named is P. aeruginosa RCMB 010043. Kind of series: Agar well diffusion, inhibition zone. The class given is cell-based, Pseudomonas aeruginosa. Conditions: Pseudomonas aeruginosa, RCMB010043, 1 mg/mL, mean of three values, read-out: Mean diameter of inhibition zone (Mean ± SEM).
In series [4] the test system is E. coli RCMB 010052. Kind of series: Agar well diffusion, inhibition zone. Type of series: cell-based, Escherichia coli. Conditions: Escherichia coli, RCMB010052, 1 mg/mL, mean of three values, read-out: Mean diameter of inhibition zone (Mean ± SEM).
The test system of series [5] is A. fumigatus RCMB 002568. Nature of the series: Agar well diffusion, inhibition zone. Type of series: cell-based, Aspergillus fumigatus. Also on record: key to Mean diameter of inhibition zone (Mean ± SEM): –: -: No activity under the screening conditions. To be noted: mean of three values; for zone of inhibition at 1000 µg/mL: Aspergillus fumigatus, RCMB002568, 1 mg/mL, read-out: Mean diameter of inhibition zone (Mean ± SEM).

Series [6] deals with C. albicans RCMB 005036. Nature of the series: Agar well diffusion, inhibition zone. The class given is cell-based, Candida albicans. The arrangement: key: –: -: No activity under the screening conditions. To be noted: 1 mg/mL, mean of three values.
Series [7] concerns human liver cancer cell line (HepG-2). Kind of series: MTT anticancer assay. To be noted: HepG2, HePG-2 cancer liver cell line, mean of three values, read-out: IC50 (Mean ± SEM). Type of series: cell-based. (In general: Tetrazolium dyes change colour on reduction, which living cells bring about.)
The test system of series [8] is (THLE-2) normal liver cell line. Kind of series: Cytotoxic screening on normal liver cells. Type of series: cell-based. Conditions: Homo sapiens, mean of three values, read-out: IC50 (Mean ± SEM).
For series [9], the system named is S. pneumonia RCMB 010010. Nature of the series: Minimum inhibitory concentration, modified agar well diffusion. Type of series: cell-based. Conditions: Streptococcus pneumoniae, RCMB010010, mean of three values, read-out: MIC (Mean ± SEM).
The subject of series [10] is B. subtilis RCMB 010067. The description is as above. Type of series: cell-based. To be noted: Bacillus subtilis, RCMB010067, mean of three values, read-out: MIC (Mean ± SEM).
The subject of series [11] is P. aeruginosa RCMB 010043. The series is described as above. The class given is cell-based. Conditions: Pseudomonas aeruginosa, RCMB010043, mean of three values, read-out: MIC (Mean ± SEM).
Series [12] deals with E. coli RCMB 010052. The description is as above. The class given is cell-based. Conditions: Escherichia coli, RCMB010052, mean of three values, read-out: MIC (Mean ± SEM).
Series [13] concerns A. fumigatus RCMB 002568. The description is as above. The class given is cell-based. Conditions: Aspergillus fumigatus, RCMB002568, mean of three values, read-out: MIC (Mean ± SEM).

As for `CN(C)C=NC1=NNC(=O)C1=NNN1C(=O)c2ccccc2C1=O` [Compound 10, N'-{4-[(1,3-dioxo-1,3-dihydro-2H-isoindol-2-yl)hydrazono]-5-oxo-4,5-dihydro-1H-pyrazol-3-yl}-N,N-dimethylimidoformamide], the melting point (as a rule, the temperature of the solid-liquid transition) fell in the range of 136 to 138 °C. Also, the zone of inhibition (as a rule, the size of the clear area around the sample on an inoculated plate) at 1000 µg/mL in [1] amounted to 14.2 ± 0.4 mm. Besides, the zone of inhibition at 1000 µg/mL in [2] came to 11.3 ± 0.7 mm. Also, the zone of inhibition at 1000 µg/mL in [3] was determined as 12.3 ± 0.4 mm. In addition, in series [4], the zone of inhibition at 1000 µg/mL was found to be 22.6 ± 1.5 mm. For the same molecule, the zone of inhibition at 1000 µg/mL in series [5] was found to be 12.1 ± 1.5 mm. Also, the “Mean diameter of inhibition zone (Mean ± SEM)” value in series [6] is “–”. Also, the IC50 (as a rule, the concentration needed to halve the response being measured) in [7] is 16.7 ± 0.26 µg/mL (≈ 51.1 µM). For the same molecule, in series [8], the IC50 came to 688.29 ± 0.11 µg/mL (≈ 2100 µM).
The molecule `N#Cc1cnc2c(N=NN3C(=O)c4ccccc4C3=O)c(O)nn2c1N` [Compound 12, 7-Amino-3-[(1,3-dioxo-1,3-dihydro-2H-isoindol-2-yl)diazenyl]-2-hydroxy-pyrazolo[1,5-a]pyrimidine-6-carbonitrile] returned a melting point of 302 °C. The zone of inhibition at 1000 µg/mL in [1] came out at 18.6 ± 1.2 mm. Besides, the zone of inhibition at 1000 µg/mL in series [2] is 24.3 ± 0.6 mm. Also, the zone of inhibition at 1000 µg/mL in series [3] was determined as 15.8 ± 1.5 mm. For the same molecule, the zone of inhibition at 1000 µg/mL in series [4] worked out at 21.8 ± 1.3 mm. Moreover, in series [5], the zone of inhibition at 1000 µg/mL stood at 20.7 ± 1.2 mm. Moreover, the “Mean diameter of inhibition zone (Mean ± SEM)” value in series [6] was “–”. The MIC (in general, the least concentration at which growth counts as inhibited) in [9] was 7.81 ± 1.01 µg/mL (≈ 22.4 µM). Also, the minimal inhibitory concentration (MIC) in series [10] is 0.98 ± 1.18 µg/mL (≈ 2.81 µM). The MIC in [11] worked out at 62.5 ± 1.06 µg/mL (≈ 179 µM). In addition, the MIC in series [12] was 3.9 ± 0.03 µg/mL (≈ 11.2 µM). Further, the MIC in series [13] is 3.9 ± 1 µg/mL (≈ 11.2 µM). For the same molecule, the concentration for half-maximal inhibition (IC50) in series [7] is 9.11 ± 1.02 µg/mL (≈ 26.2 µM). Also, in series [8], the IC50 came out at 793.56 ± 0.31 µg/mL (≈ 2280 µM).
`N#Cc1nnc2c(N=NN3C(=O)c4ccccc4C3=O)c(O)nn2c1N` [Compound 16, 4-Amino-8-[(1,3-dioxo-1,3-dihydro-2H-isoindol-2-yl)diazenyl]-7-hydroxy-pyrazolo[5,1-c][1,2,4]triazine-3-carbonitrile] yielded a melting point of 320 °C. Further, the zone of inhibition at 1000 µg/mL in series [1] was found to be 22.8 ± 0.7 mm. Moreover, the zone of inhibition at 1000 µg/mL in series [2] stood at 18.8 ± 1.4 mm. Further, in [3], the zone of inhibition at 1000 µg/mL worked out at 18.1 ± 0.6 mm. In addition, the zone of inhibition at 1000 µg/mL in [4] is 23.7 ± 0.7 mm. For the same molecule, the zone of inhibition at 1000 µg/mL in [5] stood at 22.9 ± 1.3 mm. The “Mean diameter of inhibition zone (Mean ± SEM)” value in [6] was “–”. Besides, the MIC in series [9] was 3.9 ± 1.24 µg/mL (≈ 11.2 µM). Besides, in series [10], the MIC was found to be 7.81 ± 1.16 µg/mL (≈ 22.4 µM). The MIC in [11] stood at 15.6 ± 1.25 µg/mL (≈ 44.8 µM). Further, the MIC in [12] worked out at 1.95 ± 1.49 µg/mL (≈ 5.58 µM). The MIC in [13] was found to be 3.9 ± 0.39 µg/mL (≈ 11.2 µM). Also, the IC50 in series [7] came out at 7.5 ± 0.84 µg/mL (≈ 21.5 µM). In [8], the IC50 stood at 820.58 ± 0.18 µg/mL (≈ 2350 µM).
The molecule `CCOC(=O)c1nnc2c(N=NN3C(=O)c4ccccc4C3=O)c(O)nn2c1C` [Compound 17, Ethyl 8-[(1,3-dioxo-1,3-dihydro-2H-isoindol-2-yl)diazenyl]-7-hydroxy-4-methyl-pyrazolo[5,1-c][1,2,4]triazine-3-carboxylate] returned a melting point of more than 300 °C. The zone of inhibition at 1000 µg/mL in [1] is 21.9 ± 1.2 mm. The zone of inhibition at 1000 µg/mL in series [2] is 20.2 ± 1.2 mm. The zone of inhibition at 1000 µg/mL in [3] was determined as 15.5 ± 1.2 mm. Further, the zone of inhibition at 1000 µg/mL in [4] was 20.5 ± 1.3 mm. Moreover, in series [5], the zone of inhibition at 1000 µg/mL worked out at 16.9 ± 1.2 mm. In addition, in [6], the “Mean diameter of inhibition zone (Mean ± SEM)” value was “–”. Further, the MIC in series [9] stood at 3.9 ± 0.01 µg/mL (≈ 9.87 µM). The MIC in series [10] came to 3.9 ± 1.38 µg/mL (≈ 9.87 µM). For the same molecule, the MIC in series [11] was found to be 62.5 ± 0.71 µg/mL (≈ 158 µM). Besides, in series [12], the MIC was determined as 3.9 ± 1.24 µg/mL (≈ 9.87 µM). Further, the MIC in series [13] worked out at 15.6 ± 1.05 µg/mL (≈ 39.5 µM). The IC50 in series [7] came out at 9.92 ± 1.28 µg/mL (≈ 25.1 µM). In addition, the IC50 in series [8] was 658.13 ± 0.25 µg/mL (≈ 1660 µM).
As to `CNC(C)C1CCC(N)C(OC2C(N)CC(N)C(OC3OCC(C)(O)C(NC)C3O)C2O)O1` (stereo not drawn) [Gentamycin, reference compound], the “Mean diameter of inhibition zone (Mean ± SEM)” value in [1] (1 mg/mL), in [2] (1 mg/mL), in [5] (1 mg/mL) and in [6] was “–” throughout. In addition, the zone of inhibition at 1000 µg/mL in series [3] turned out to be 19.7 ± 0.6 mm; in [4], 24.9 ± 1.5 mm. In addition, the MIC in series [13] stood at 1.95 ± 0.03 µg/mL (≈ 4.08 µM).
For `CC[C@]1(O)C[C@@H]2CN(CCc3c([nH]c4ccccc34)[C@@](C(=O)OC)(c3cc4c(cc3OC)N(C)[C@H]3[C@@](O)(C(=O)OC)[C@H](OC(C)=O)[C@]5(CC)C=CCN6CC[C@]43[C@@H]65)C2)C1` [Vinblastine, reference compound], the results for the IC50 in series [7] and in series [8] were 4.63 ± 1.07 µg/mL (≈ 5.71 µM) and 2146.1 ± 0.1 µg/mL (≈ 2650 µM), respectively.

Source of the values: paper PMC6691772, “Novel phthalimide based analogues: design, synthesis, biological evaluation, and molecular docking studies” (Journal of Enzyme Inhibition and Medicinal Chemistry, 2019).
